Assay results reported in US20250304643A1, “PEPTIDE DUAL AGONISTS OF GIPR AND GLP2R” (BAINAN BIOTECH APS, priority 2021, published 2025).
Read-outs that look alike come from different tables or passages of the source.

Tests used:
Type in all cases: cell-based
[1] = molecular target: T1, human GLP-1R (Homo sapiens, UniProt P43220); assay: HitHunter cAMP assay in transiently transfected COS-7 cells, human GLP-1R; conditions: for activation of hGLP-1R: fatty acid at C-terminal residue or position 16
T1 construct: host or cells: COS-7
T1 sequence (P43220 24-463): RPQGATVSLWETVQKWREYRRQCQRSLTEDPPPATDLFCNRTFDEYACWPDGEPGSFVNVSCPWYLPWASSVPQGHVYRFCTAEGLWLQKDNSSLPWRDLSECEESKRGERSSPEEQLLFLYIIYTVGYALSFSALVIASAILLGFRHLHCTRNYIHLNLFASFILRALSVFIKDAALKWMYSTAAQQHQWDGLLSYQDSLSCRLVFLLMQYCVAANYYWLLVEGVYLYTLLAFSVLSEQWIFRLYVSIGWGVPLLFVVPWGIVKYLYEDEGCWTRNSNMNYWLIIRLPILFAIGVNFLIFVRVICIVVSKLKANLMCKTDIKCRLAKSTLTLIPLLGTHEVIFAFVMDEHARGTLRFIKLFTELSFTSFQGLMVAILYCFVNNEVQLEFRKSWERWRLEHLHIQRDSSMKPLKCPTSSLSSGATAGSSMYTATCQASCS
Protocol: The next day the assay was initiated by washing with HEPES buffered saline (HBS) and followed by an incubation step with assay buffer (HBS added 1 mM isobutyl-1-methylxanthine (IBMX)) for 30 min at 37° C. The ligands were then added and incubated for an additional 30 min at 37° C. After ligand incubation, the HitHunter® CAMP assay (Eurofins DiscoverX, Fremont, […] USA) was carried out according to the manufacturer's instructions. Luminescence was measured by PerkinElmer™ EnVision 2014 Multilabel Reader (PerkinElmer, Waltham, MA). The potencies (EC50 values) were determined by nonlinear regression using GraphPad Prism 9 (San Diego, California, USA). Sigmoid curves were fitted logistically. The efficacies (Emax values) were determined by normalization to the highest concentration applied of the endogenous ligand for each receptor.

[2] = molecular target: T2, human GIPR (Homo sapiens, UniProt P48546); set-up: host or cells: COS-7
T2 sequence (P48546 22-466): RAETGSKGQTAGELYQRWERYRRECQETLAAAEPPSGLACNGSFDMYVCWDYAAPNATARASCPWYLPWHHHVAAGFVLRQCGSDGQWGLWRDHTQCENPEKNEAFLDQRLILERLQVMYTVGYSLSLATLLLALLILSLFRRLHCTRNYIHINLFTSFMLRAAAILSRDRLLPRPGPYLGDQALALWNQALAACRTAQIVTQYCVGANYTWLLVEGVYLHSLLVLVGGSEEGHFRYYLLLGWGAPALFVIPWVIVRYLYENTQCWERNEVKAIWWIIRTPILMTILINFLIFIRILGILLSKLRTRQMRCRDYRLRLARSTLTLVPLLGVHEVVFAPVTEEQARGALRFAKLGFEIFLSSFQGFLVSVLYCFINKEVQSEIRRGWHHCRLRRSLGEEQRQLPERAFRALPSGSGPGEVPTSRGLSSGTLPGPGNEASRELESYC

[3] = molecular target: T3, human GLP-2R (Homo sapiens, UniProt O95838); assay: HitHunter cAMP assay in transiently transfected COS-7 cells, human GLP-2R;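 further: cells kept 30 min at 37 °C in buffer with 1 mM IBMX, then given ligand for another 30 min at 37 °C before cAMP readout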
T3 construct: host or cells: COS-7
T3 sequence (O95838 1-553): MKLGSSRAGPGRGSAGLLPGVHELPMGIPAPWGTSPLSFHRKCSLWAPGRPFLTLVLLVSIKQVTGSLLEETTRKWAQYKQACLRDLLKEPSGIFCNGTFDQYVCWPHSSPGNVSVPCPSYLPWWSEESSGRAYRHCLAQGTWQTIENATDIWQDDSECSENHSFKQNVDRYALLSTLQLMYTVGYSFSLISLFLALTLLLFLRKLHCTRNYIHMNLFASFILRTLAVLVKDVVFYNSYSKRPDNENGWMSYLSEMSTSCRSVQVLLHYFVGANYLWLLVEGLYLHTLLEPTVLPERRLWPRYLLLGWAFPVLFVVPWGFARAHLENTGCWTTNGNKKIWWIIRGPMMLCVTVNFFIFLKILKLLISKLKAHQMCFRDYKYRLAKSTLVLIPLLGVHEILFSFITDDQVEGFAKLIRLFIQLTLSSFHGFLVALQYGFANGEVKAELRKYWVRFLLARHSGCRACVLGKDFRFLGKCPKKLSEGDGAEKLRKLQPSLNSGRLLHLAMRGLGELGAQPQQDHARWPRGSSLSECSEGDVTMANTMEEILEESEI
Protocol: COS-7 cells were cultured at 10% CO2 and 37° C. in Dulbecco's Modified Eagle Medium (DMEM) 1885 supplemented with 10% fetal bovine serum (FBS), 2 mM glutamine, 180 units/ml penicillin, and 45 g/ml streptomycin.
The next day the assay was initiated by washing with HEPES buffered saline (HBS) and followed by an incubation step with assay buffer (HBS added 1 mM isobutyl-1-methylxanthine (IBMX)) for 30 min at 37° C. The ligands were then added and incubated for an additional 30 min at 37° C. After ligand incubation, the HitHunter® CAMP assay (Eurofins DiscoverX, Fremont, 150 USA) was carried out according to the manufacturer's instructions. Luminescence was measured by PerkinElmer™ EnVision 2014 Multilabel Reader (PerkinElmer, Waltham, MA). The potencies (EC50 values) were determined by nonlinear regression using GraphPad Prism 9 (San Diego, California, USA). Sigmoid curves were fitted logistically. The efficacies (Emax values) were determined by normalization to the highest concentration applied of the endogenous ligand for each receptor.

[4] = Emax normalized to highest concentration of endogenous ligand, Table 3
[5] = Emax normalized to highest concentration of endogenous ligand, Table 2
[6] = comparative peptides, Emax normalized to endogenous ligand, Table C
[7] = comparative peptides, Emax normalized to endogenous ligand, Table 4A
[8] = comparative peptides, Emax normalized to endogenous ligand, Table B

Row | Substance | Efficacy GLP-1R [1, 4] | Efficacy GIPR [2, 5] | Efficacy GLP-2R [3, 5] | further results
1 | (C16-diacid)H-Aib-EGTFISDYST-Aib-LDALAARDFINWLIQTKITKNDWKHNITQ-OH [Compound no. 41] | 14 | 91 | 74 | –
2 | (C16)HADGTFISDYSTILDNLAAKDFINWLIQTKITK [Compound no. 45] | – | 91 | 59 | –
3 | (C16)HADGTFISDYSTILDNLAARDFINWLIQTKIT [Compound no. 2] | – | 80 | 59 | –
4 | (C16-diacid)H-Aib-DGTFISDYST-Aib-LDKLAARDFIEWLIQTKITK-OH [Compound no. 22] | – | 91 | 95 | –
5 | HADGTFISDYSTAibLDK(γGlu-C18-diacid) LAARDFINWLIQTKGKK [Compound no. 62, reference compound] | – | – | – | activation of hGLP-1R [1]: capable of activating hGLP-1R
6 | (C16-diacid)HADGTFISDYSTAibLDNLAARDFINWLIQTKITKNDWKHNITQ [Compound no. 39] | – | 99 | 78 | –
7 | H-Aib-DGTFISDYSTILDNLAARDFINWLIQTKITK(C10)-OH [Compound no. 63, reference compound] | – | – | – | Efficacy GLP-1R [1, 6]: 84; activation of hGLP-1R [1]: capable of activating hGLP-1R; Efficacy GIPR [2, 7]: 99; Efficacy GLP-2R [3, 8]: 105
8 | H-Aib-DGTFISDYS-K(γGlu-C16)-ILDNLAARDFINWLIQTKITK-OH [Compound no. 12] | 62 | 107 | 79 | –
9 | (C16)HADGTFISDYSTILDNLAARDFIEWLIQTKITKNDWKHNITQ [Compound no. 50] | – | 101 | 70 | –
10 | H-Aib-DGTFISDY-K(γGlu-C16)-TILDNLAARDFINWLIETKITK-OH [Compound no. 32] | – | 89 | 84 | –
11 | H-Aib-EG-K(γGlu-C16)-FISDYST-Aib-LDNLAARDFINWLIQTKITK-OH [Compound no. 27] | 0 | 98 | 108 | –
12 | (C16)HADGTFISDYSTILDAibLAARDFINWLIQTKITKNDWKHNITQ [Compound no. 16] | 2 | 99 | 64 | –
13 | (C16-diacid)H-Aib-EGTFISDYST-Aib-LDNLAARDFINWLIQTKITK-OH [Compound no. 19] | – | 98 | 81 | –
14 | (C16)HADGTFISDYSTILDNLAARDFINWLIATKITKNDWKHNITQ [Compound no. 52] | – | – | 68 | –
15 | (C16-diacid)H-Aib-EGTFISDYST-Aib-LDKLAARDFINWLIQTKITK-OH [Compound no. 21] | 10 | 86 | 58 | –
16 | (C10-diacid)H-Aib-DGTFISDYST-Aib-LDNLAARDFINWLIQTKITK-OH [Compound no. 18] | 10 | 77 | 90 | –
17 | H-Aib-DG-K(γGlu- γGlu-C10)-FISDYSTILDNLAARDFINWLIQTKITK-OH [Compound no. 26] | 14 | 80 | 91 | –
18 | H-Aib-DGTF-K(γGlu-C16)-SDYSTILDNLAARDFINWLIQTKITK-OH [Compound no. 10] | 10 | 102 | 23 | –
19 | HADGTFISDYSTILDK(γGlu-C18-diacid) LAARDFINWLIQTKGKK [Compound no. 64, reference compound] | – | – | – | activation of hGLP-1R [1]: capable of activating hGLP-1R
20 | HADGTFISDYSTILDNLAARDFINWLIQTKGKK(γGlu-C18-diacid) [Compound no. 60, reference compound] | – | – | – | activation of hGLP-1R [1]: capable of activating hGLP-1R
21 | (C16)HADGTFISDYSTILDNLAARDFINWLIETKITKNDWKHNITQ [Compound no. 51] | – | 104 | 66 | –

Row | Substance | Efficacy GLP-1R [1, 4] | Efficacy GIPR [2, 5] | Efficacy GLP-2R [3, 5] | further results
22 | (C16)HADGTFISDYSTILDNLAARDFINWLLAQKITK [Compound no. 46] | – | 98 | 82 | –
23 | H-Aib-DG-K(γGlu- γGlu-C16)-FISDYST-Aib-LDNLAARDFINWLIQTKITK-OH [Compound no. 28] | 14 | 105 | 99 | –
24 | (C16)HADGTFISDYSTILDELAARDFINWLIQTKITKNDWKHNITQ [Compound no. 48] | – | 112 | 69 | –
25 | (C16)H-Aib-DGTFISDYST-Aib-LDNLAARDFINWLIQTKITK-OH [Compound no. 5] | 6 | 111 | 109 | –
26 | Ac-H-Aib-DGTFISDY-K(γGlu-C16)-T-Aib-LDNLAARDFINWLIQTKITK-OH [Compound no. 34] | – | 75 | 103 | –
27 | HADGTFISDYSTAibLDNLAARDFINWLIQTKGKKK(γGlu-C18-diacid) [Compound no. 61, reference compound] | – | – | – | activation of hGLP-1R [1]: capable of activating hGLP-1R
28 | (C16)HADGTFISDYSTILDNLAARDFINWLIQTKITKAEWKHAITQ [Compound no. 49] | – | 105 | 92 | –
29 | H-Aib-DGTFISDY-K(γGlu-C10)-T-Aib-LDNLAARDFINWLIQTKITD-OH [Compound no. 30] | 10 | 85 | 81 | –
30 | (C16-diacid)H-Aib-DGTFISDYST-Aib-LDALAARDFIEWLIQTKITK-OH [Compound no. 20] | – | 93 | 88 | –
31 | (C16-diacid)H-Aib-EGTFISDYST-Aib-LDNLAAKDFINWLIQTKITKNDWKHNITQ-OH [Compound no. 43] | – | 101 | 73 | –
32 | H-Aib-DGTFISDY-K(γGlu-C16)-T-Aib-LDNLAARDFINWLIQTKITK-OH [Compound no. 29] | 0 | 104 | 124 | –
33 | (C16-diacid)H-Aib-DGTFISDYST-Aib-LDNLAARDFINWLIQTKITKNDWKHNITQ-OH [Compound no. 40] | – | 94 | 96 | –
34 | (C16)H-Aib-DGTFISDYSTILD-Aib-LAARDFINWLIQTKITK-OH [Compound no. 6] | 34 | 108 | 91 | –
35 | (C16-diacid)H-Aib-DGTFISDYST-Aib-LDNLAARDFINWLIQTKITK-OH [Compound no. 17] | 5 | 98 | 90 | –
36 | (C16-diacid)H-Aib-DGTFISDYST-Aib-LDNLAAKDFINWLIQTKITKNDWKHNITQ-OH [Compound no. 42] | – | – | 93 | –
37 | (C16-diacid)H-Aib-DGTFISDYST-Aib-LDKLAARDFINWLIETKITK-OH [Compound no. 23] | – | 107 | 86 | –
38 | (C16)H-Aib-DGTFISDYSTILDNLAARDFIEWLIQTKIT-OH [Compound no. 8] | 19 | 108 | 106 | –
39 | (C16)HADGTFISDYSTILELLAARDFINWLIQTKITKNDWKHNITQ [Compound no. 15] | 0 | 106 | 70 | –
40 | Ac-H-Aib-DGTFISDY-K(γGlu-C16)-T-Aib-LDNLAARDFINWLIQTKITKNDWKHNITQ-OH [Compound no. 38] | – | 81 | 89 | –
41 | H-Aib-DGTFISDYST-Aib-LDNLAARDFINWLIQTKITK(C10)-NH2 [Compound no. 65, reference compound] | – | – | – | Efficacy GLP-1R [1, 6]: 76; activation of hGLP-1R [1]: capable of activating hGLP-1R; Efficacy GIPR [2, 7]: 107; Efficacy GLP-2R [3, 8]: 77
